Assay results: patent US20250320138A1 (priority 2022, published 2025)
“And” between values parts separate entries of the source, which are not always exact repeats. Equal entries are not always repeated.

Tests used:
[1] = system: chlorine-resistant Methylobacterium strain; assay type: cell-based, Methylobacterium fujisawaense
[2] = system: chlorine-resistant Methylobacterium strain; assay type: cell-based, Methylobacterium fujisawaense; remark: listed apart in the source

O=[O+][O-] [ozone]
bactericidal rate [1]: 0.0% and 9.4% and 2.1% and 5.0%
inner structure of cell body (electron microscope) [2]: an organization is packed inside the cell body similarly to the blank
